This passage reports inhibition and IC50 results from patent US10323021B2, “Triazoles as NR2B receptor inhibitors” (Janssen Pharmaceuticals, Inc., priority 2014, dated 2019).

Each structure is given as a SMILES string.

One experiment has as its target rat NR1/NR2B receptor (Rattus norvegicus (Rat), UniProt P35439+Q00960). The experiment can be described thus: NR2B binding assay: inhibition of specific [3H]-Ifenprodil binding to the rat NR1/NR2B receptor. The settings on record: for inhibition at 1 µM: 1 μM test compound, read-out: NR2B binding assay % INH @ 1 μM; for inhibition at 10 µM: 10 μM test compound, read-out: NR2B binding assay % INH @ 10 μM. On the procedure:
Inhibition of Specific Binding to the Rat NR1/NR2B Receptor
Male Wistar rats (180 to 200 g) were killed by suffocation in a CO2 chamber for two minutes. Whole brains without cerebellum were removed and dissected on ice, placed into closed vials and stored at −70° C.
Membrane fractions were prepared and tested using standard techniques. At the time of the assay, 1 g of the brains was placed into 25 ml of 50 mM Tris/10 mM EDTA buffer, pH 7.1, (25 vol. per g of original tissue) and homogenized for 30 sec at 20000 rpm with an Ultraturrax T25 (Jahnke & Kunkel, IKA-Labortechnik, Staufen, Germany). The homogenate was centrifuged at 4° C. for 10 min at 48000 g (OPTIMA L-70, Beckman, Palo Alto, Calif. 94304, USA).
The supernatant was discarded and the pellet was homogenized on ice for 30 sec at 20000 rpm with an Ultraturrax and again centrifuged at 48000 g for 30 minutes at 4° C. The resulted pellet was resuspended in 25 ml of 50 mM Tris/10 mM EDTA buffer, homogenized for 30 sec with an Ultraturrax, aliquoted, frozen at −70° C. and stored until use.
After thawing on the day of the assay, a 5 ml membrane aliquot was centrifuged at 48000 g for 30 min at 4° C. The pellet was resuspended in 5 ml of 5 mM Tris/1 mM EDTA buffer, pH 7.4, homogenized for 30 sec at 20000 rpm with an Ultraturrax and centrifuged at 48000 g for 30 min at 4° C. This was repeated twice. The final pellet was homogenized in 5 ml of 5 mM Tris/1 mM EDTA buffer at 4° C. with an Ultraturrax and used for the Ifenprodil-binding assay as described in the following.
Nonspecific binding was estimated in the presence of […] CP101.606. The samples were incubated for 60 min. at 4° C.
The incubation was terminated by filtration of the membrane preparations using Filtermat B (Pharmacia, Uppsala Sweden) and a Micro Cell Harvester (Skatron, Lier, Norway). The Filtermat B had been presoaked with 1% polyethylene imine and carefully washed with 50 mM Tris/HCl-buffer pH 7.7 after the filtration to separate free and bound radioactivity.
The optimal amount of membrane preparation in the assay had been determined and optimized for each membrane preparation separately before the test.
For pipetting of the incubation mixture we routinely used the robot Biomek2000 (Fa. Beckman).
For determination of IC50 values the Hill-plot, 2-parameter-model was used.

The next experiment concerns the target hERG receptor (Homo sapiens (Human), UniProt Q12809). The experiment can be described thus: HERGBD: inhibition of specific [3H]-Dofetilide binding to the hERG receptor. The settings on record: HEK hERG membranes, Hill-plot 2-parameter model.

Sequence of rat NR1/NR2B receptor (Q00960 27-1482, other chains not shown): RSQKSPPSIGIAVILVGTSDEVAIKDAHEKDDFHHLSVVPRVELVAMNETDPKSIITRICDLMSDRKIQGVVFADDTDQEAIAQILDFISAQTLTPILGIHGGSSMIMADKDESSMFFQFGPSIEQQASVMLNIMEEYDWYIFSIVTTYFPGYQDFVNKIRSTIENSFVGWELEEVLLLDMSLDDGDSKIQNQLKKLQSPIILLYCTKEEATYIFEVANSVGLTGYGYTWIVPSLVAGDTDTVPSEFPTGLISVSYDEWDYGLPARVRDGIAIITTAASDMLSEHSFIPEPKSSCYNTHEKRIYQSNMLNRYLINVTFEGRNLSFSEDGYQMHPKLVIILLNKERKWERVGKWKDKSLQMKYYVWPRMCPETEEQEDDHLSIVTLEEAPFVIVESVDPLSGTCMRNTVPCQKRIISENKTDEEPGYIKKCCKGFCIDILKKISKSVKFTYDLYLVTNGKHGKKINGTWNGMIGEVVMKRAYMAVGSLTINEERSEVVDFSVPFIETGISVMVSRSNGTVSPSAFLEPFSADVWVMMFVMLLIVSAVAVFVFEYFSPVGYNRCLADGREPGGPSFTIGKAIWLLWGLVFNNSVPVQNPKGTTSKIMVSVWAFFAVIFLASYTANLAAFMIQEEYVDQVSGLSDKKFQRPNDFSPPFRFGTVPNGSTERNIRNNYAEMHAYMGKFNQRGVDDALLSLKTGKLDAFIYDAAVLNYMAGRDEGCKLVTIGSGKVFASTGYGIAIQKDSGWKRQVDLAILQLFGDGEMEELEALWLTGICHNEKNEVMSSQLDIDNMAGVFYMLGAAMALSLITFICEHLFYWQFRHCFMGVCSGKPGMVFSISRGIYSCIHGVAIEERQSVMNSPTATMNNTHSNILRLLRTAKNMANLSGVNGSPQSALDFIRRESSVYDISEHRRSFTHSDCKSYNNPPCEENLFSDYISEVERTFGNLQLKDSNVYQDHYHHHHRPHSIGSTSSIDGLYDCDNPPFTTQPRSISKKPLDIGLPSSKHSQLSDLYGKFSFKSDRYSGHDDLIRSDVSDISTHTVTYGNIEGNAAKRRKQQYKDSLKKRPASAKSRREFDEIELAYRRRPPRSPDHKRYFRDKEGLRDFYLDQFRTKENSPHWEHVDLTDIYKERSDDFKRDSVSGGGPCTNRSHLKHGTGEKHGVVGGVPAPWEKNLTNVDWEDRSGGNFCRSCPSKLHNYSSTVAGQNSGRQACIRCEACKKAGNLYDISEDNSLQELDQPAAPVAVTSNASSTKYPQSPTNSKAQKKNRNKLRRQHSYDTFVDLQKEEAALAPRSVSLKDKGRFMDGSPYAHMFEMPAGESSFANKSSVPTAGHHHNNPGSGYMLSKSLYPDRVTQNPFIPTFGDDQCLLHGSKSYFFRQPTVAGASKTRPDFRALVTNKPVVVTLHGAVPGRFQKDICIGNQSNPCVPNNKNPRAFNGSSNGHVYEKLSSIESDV
Sequence of hERG receptor (Q12809 whole entry): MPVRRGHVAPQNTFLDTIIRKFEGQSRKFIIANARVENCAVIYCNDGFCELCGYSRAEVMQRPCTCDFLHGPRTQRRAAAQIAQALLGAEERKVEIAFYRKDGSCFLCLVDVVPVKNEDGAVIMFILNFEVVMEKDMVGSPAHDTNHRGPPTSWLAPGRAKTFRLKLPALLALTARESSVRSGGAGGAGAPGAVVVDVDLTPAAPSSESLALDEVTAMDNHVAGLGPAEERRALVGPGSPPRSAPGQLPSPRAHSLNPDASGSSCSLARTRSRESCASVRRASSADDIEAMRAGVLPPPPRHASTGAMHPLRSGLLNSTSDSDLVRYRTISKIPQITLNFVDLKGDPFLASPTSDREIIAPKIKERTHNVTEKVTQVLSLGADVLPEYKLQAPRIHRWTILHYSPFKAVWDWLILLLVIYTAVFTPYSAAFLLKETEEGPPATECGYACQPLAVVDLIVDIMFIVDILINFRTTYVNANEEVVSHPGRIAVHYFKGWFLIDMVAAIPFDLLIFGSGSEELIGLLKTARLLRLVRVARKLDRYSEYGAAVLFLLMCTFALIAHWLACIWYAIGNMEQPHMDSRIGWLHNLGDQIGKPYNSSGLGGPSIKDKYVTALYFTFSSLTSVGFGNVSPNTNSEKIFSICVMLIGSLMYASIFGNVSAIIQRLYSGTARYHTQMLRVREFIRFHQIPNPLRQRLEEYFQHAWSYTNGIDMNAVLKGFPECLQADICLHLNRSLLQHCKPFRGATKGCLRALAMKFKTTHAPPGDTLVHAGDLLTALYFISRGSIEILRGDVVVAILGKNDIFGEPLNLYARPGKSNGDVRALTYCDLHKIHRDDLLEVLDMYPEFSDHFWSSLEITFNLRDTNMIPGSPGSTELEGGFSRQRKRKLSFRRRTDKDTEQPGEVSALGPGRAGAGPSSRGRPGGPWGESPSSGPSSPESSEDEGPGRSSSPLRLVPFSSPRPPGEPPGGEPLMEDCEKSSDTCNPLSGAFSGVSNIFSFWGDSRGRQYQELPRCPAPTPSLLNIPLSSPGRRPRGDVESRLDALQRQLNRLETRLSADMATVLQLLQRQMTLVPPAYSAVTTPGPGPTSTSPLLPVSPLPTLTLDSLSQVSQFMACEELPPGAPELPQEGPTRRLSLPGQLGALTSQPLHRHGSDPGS
Method for hERG receptor: Inhibition of Specific Binding to the hERG—Receptor (HERGBD)
A HEK cell line with stable transfected human ERG receptor was used for the assay. The cells were grown adherently and maintained in DULBECCOS' MEM medium with 10% FBS, 1% non-essential amino acids, 1% Penicillin/Streptomycin and 400 μg/ml G418 (Calbiochem).
For binding assays and membrane preparations the cell culture medium was removed, cells were washed with PBS. Crude membranes for radioligand binding experiments were prepared by scraping the cells off the dishes in ice cold 20 mM HEPES/0.1 mM KCl/pH 7.2. […]
Binding was terminated by filtration of the incubated membrane preparations using Filtermat B (Pharmacia, Uppsala Sweden) and a Micro Cell Harvester (Skatron, Lier, Norway). The Filtermat B had been presoaked with 1% polyethylenimine and carefully washed with 0.05 M Tris/HCl-buffer pH=7.7 after the filtration to separate free and bound radioactivity. The filters were counted in a scintillation counter (Betaplate 1205, Berthold, Wildbad, Germany) in order to determine the specific binding of [^3H]-Dofetilide.
The optimal amount of membrane preparation in the assay was determined and optimized for each membrane preparation separately in front of using the membranes in compound testing.
The IC50 values in the table below were determined using the Hill-plot, 2-parameter-model.

In the case of `Cc1nc(C)n(Cc2cn(-c3ccc(Cl)cc3)nn2)n1` [Example 1, 1-(4-Chloro-phenyl)-4-(3,5-dimethyl-[1,2,4]triazol-1-ylmethyl)-1H-[1,2,3]triazole], on rat NR1/NR2B receptor, the inhibition at 1 µM turned out to be 12.4% and the inhibition at 10 µM was 31.5%.
Turning to `CCCc1ncnn1Cc1cn(-c2ccc(Cl)cc2)nn1` [Example 2, 1-(4-Chloro-phenyl)-4-(5-propyl-[1,2,4]triazol-1-ylmethyl)-1H-[1,2,3]triazole], on rat NR1/NR2B receptor, the inhibition at 1 µM was 23.9% and the inhibition at 10 µM amounted to 43%.
On to `CCCc1ncn(Cc2cn(-c3ccc(Cl)cc3)nn2)n1` [Example 3, 1-(4-Chloro-phenyl)-4-(3-propyl-[1,2,4]triazol-1-ylmethyl)-1H-[1,2,3]triazole], for which, at rat NR1/NR2B receptor, the inhibition at 1 µM is 18.3% and the inhibition at 10 µM was found to be 4.5%.
Regarding `CC(C)c1ncn(Cc2cn(-c3ccc(Cl)cc3)nn2)n1` [Example 4, 1-(4-Chloro-phenyl)-4-(3-isopropyl-[1,2,4]triazol-1-ylmethyl)-1H-[1,2,3]triazole], at rat NR1/NR2B receptor, the inhibition at 1 µM was found to be 21.6% and the inhibition at 10 µM was determined as 2%.
Take `CCc1ncnn1Cc1cn(-c2ccc(Cl)cc2)nn1` [Example 5, 1-(4-Chloro-phenyl)-4-(5-ethyl-[1,2,4]triazol-1-ylmethyl)-1H-[1,2,3]triazole]: on rat NR1/NR2B receptor, the inhibition at 1 µM stood at 1.2% and the inhibition at 10 µM is 30.1%.
On to `CCc1ncn(Cc2cn(-c3ccc(Cl)cc3)nn2)n1` [Example 6, 1-(4-Chloro-phenyl)-4-(3-ethyl-[1,2,4]triazol-1-ylmethyl)-1H-[1,2,3]triazole], for which, on rat NR1/NR2B receptor, the inhibition at 1 µM was found to be 11.8% and the inhibition at 10 µM came to 21.6%.
As for `CC(C)c1ncnn1Cc1cn(-c2ccc(Cl)cc2)nn1` [Example 7, 1-(4-Chloro-phenyl)-4-(5-isopropyl-[1,2,4]triazol-1-ylmethyl)-1H-[1,2,3]triazole], on rat NR1/NR2B receptor, the inhibition at 1 µM was 2.3% and the inhibition at 10 µM is 40.9%.
Turning to `Cc1ncnn1Cc1cn(-c2ccc(Cl)cc2)nn1` [Example 8, 1-(4-Chloro-phenyl)-4-(5-methyl-[1,2,4]triazol-1-ylmethyl)-1H-[1,2,3]triazole], on rat NR1/NR2B receptor, the inhibition at 1 µM worked out at 8.3% and the inhibition at 10 µM amounted to 38.7%.
In the case of `Cc1ncn(Cc2cn(-c3ccc(Cl)cc3)nn2)n1` [Example 9, 1-(4-Chloro-phenyl)-4-(3-methyl-[1,2,4]triazol-1-ylmethyl)-1H-[1,2,3]triazole], on rat NR1/NR2B receptor, the inhibition at 1 µM was 6.6% and the inhibition at 10 µM turned out to be 17.9%.
With `Clc1ccc(-n2cc(Cn3nc(C4CC4)nc3C3CC3)nn2)cc1` [Example 10, 1-(4-Chlorophenyl)-4-(3,5-dicyclopropyl-[1,2,4]triazol-1-ylmethyl)-1-[1,2,3]triazole], at rat NR1/NR2B receptor, the inhibition at 1 µM was -6% and the inhibition at 10 µM was found to be 3.5%.
Regarding `Clc1ccc(-n2cc(Cn3ncnc3C3CCC3)nn2)cc1` [Example 11, 1-(4-Chloro-phenyl)-4-(5-cyclobutyl-[1,2,4]triazol-1-ylmethyl)-1H-[1,2,3]triazole], on rat NR1/NR2B receptor, the inhibition at 1 µM came out at 8.7% and the inhibition at 10 µM came out at 41.5%.
In the same order, the values of `Clc1ccc(-n2cc(Cn3cnc(C4CCC4)n3)nn2)cc1` [Example 12, 1-(4-Chloro-phenyl)-4-(3-cyclobutyl-[1,2,4]triazol-1-ylmethyl)-1H-[1,2,3]triazole] are -0.66% and 11%.
In the same order, the values of `Clc1ccc(-n2cc(Cn3cnc(C4CC4)n3)nn2)cc1` [Example 13, 1-(4-Chloro-phenyl)-4-(3-cyclopropyl-[1,2,4]triazol-1-ylmethyl)-1H-[1,2,3]triazole] are 7.5% and 16.2%.
For `Clc1ccc(-n2cc(Cn3ncnc3C3CCCC3)nn2)cc1` [Example 14, 1-(4-Chloro-phenyl)-4-(5-cyclopentyl-[1,2,4]triazol-1-ylmethyl)-1H-[1,2,3]triazole], the inhibition at 10 µM at rat NR1/NR2B receptor was found to be 49.6%.
Turning to `Clc1ccc(-n2cc(Cn3cnc(C4CCCC4)n3)nn2)cc1` [Example 15], on rat NR1/NR2B receptor, the inhibition at 1 µM was 6.4% and the inhibition at 10 µM was 22.2%.
Regarding `Clc1ccc(-n2cc(Cn3ncnc3C3CC3)nn2)cc1` [Example 16, 1-(4-Chloro-phenyl)-4-(5-cyclopropyl-[1,2,4]triazol-1-ylmethyl)-1H-[1,2,3]triazole], at rat NR1/NR2B receptor, the inhibition at 1 µM came to 3.6% and the inhibition at 10 µM was determined as 32.6%.
In the same order, the values of `FC(F)(F)c1ncn(Cc2cn(-c3ccc(Cl)cc3)nn2)n1` [Example 17, 1-(4-Chloro-phenyl)-4-(3-trifluoromethyl-[1,2,4]triazol-1-ylmethyl)-1H-[1,2,3]triazole] are 19.9% and 12.5%.
In the same order, the values of `CC(C)(C)c1ncnn1Cc1cn(-c2ccc(Cl)cc2)nn1` [Example 19, 4-(5-tert-Butyl-[1,2,4]triazol-1-ylmethyl)-1-(4-chloro-phenyl)-1H-[1,2,3]triazole] are 8.2% and 14.5%.
Take `CC(C)(C)c1ncn(Cc2cn(-c3ccc(Cl)cc3)nn2)n1` [Example 20, 4-(3-tert-Butyl-[1,2,4]triazol-1-ylmethyl)-1-(4-chloro-phenyl)-1H-[1,2,3]triazole]: on rat NR1/NR2B receptor, the inhibition at 1 µM came out at 27% and the inhibition at 10 µM turned out to be 15.3%.
As to `Cc1nc(C2CCC2)n(Cc2cn(-c3ccc(Cl)cc3)nn2)n1` [Example 21, 1-(4-Chloro-phenyl)-4-(5-cyclobutyl-3-methyl-[1,2,4]triazol-1-ylmethyl)-1H-[1,2,3]triazole], on rat NR1/NR2B receptor, the inhibition at 1 µM was -1.6% and the inhibition at 10 µM stood at 6.8%.
Take `Cc1nc(C2CCC2)nn1Cc1cn(-c2ccc(Cl)cc2)nn1` [Example 22, 1-(4-Chloro-phenyl)-4-(3-cyclobutyl-5-methyl-[1,2,4]triazol-1-ylmethyl)-1H-[1,2,3]triazole]: at rat NR1/NR2B receptor, the inhibition at 1 µM was determined as 14.5% and the inhibition at 10 µM is -2.2%.
Regarding `Clc1ccc(-n2cc(Cn3ccnc3Cl)nn2)cc1` [Example 26, 4-(2-Chloro-imidazol-1-ylmethyl)-1-(4-chloro-phenyl)-1H-[1,2,3]triazole], at rat NR1/NR2B receptor, the inhibition at 1 µM turned out to be 28.7% and the inhibition at 10 µM was determined as 51.4%.
On to `CC(C)(C)c1nccn1Cc1cn(-c2ccc(Cl)cc2)nn1` [Example 30, 4-(2-tert-Butyl-imidazol-1-ylmethyl)-1-(4-chloro-phenyl)-1H-[1,2,3]triazole], for which, on rat NR1/NR2B receptor, the inhibition at 1 µM worked out at 12.7% and the inhibition at 10 µM came out at 53.2%.
In the case of `Cc1nncn1Cc1cn(-c2ccc(Cl)cc2)nn1` [Example 31, 1-(4-Chloro-phenyl)-4-(3-methyl-[1,2,4]triazol-4-ylmethyl)-1H-[1,2,3]triazole], at rat NR1/NR2B receptor, the inhibition at 1 µM was 3.7% and the inhibition at 10 µM came to 2.2%.
`Cc1nc(C)n(Cc2cn(-c3ccccc3)nn2)n1` [Example 46, 4-(3,5-Dimethyl-[1,2,4]triazol-1-ylmethyl)-1-phenyl-1H-[1,2,3]triazole]: on rat NR1/NR2B receptor, the inhibition at 1 µM came to 9.3% and the inhibition at 10 µM turned out to be 7.4%.
Turning to `Cc1nc(CO)n(Cc2cn(-c3ccccc3)nn2)n1` [Example 47, 4-(5-Hydroxymethyl-3-methyl-[1,2,4]triazol-1-ylmethyl)-1-phenyl-1H-[1,2,3]triazole], on rat NR1/NR2B receptor, the inhibition at 1 µM was found to be 33.8% and the inhibition at 10 µM was -8.4%.
In the case of `Cc1nc(CO)nn1Cc1cn(-c2ccccc2)nn1` [Example 48, 4-(3-Hydroxymethyl-5-methyl-[1,2,4]triazol-1-ylmethyl)-1-phenyl-1H-[1,2,3]triazole], on rat NR1/NR2B receptor, the inhibition at 1 µM turned out to be 29.6% and the inhibition at 10 µM is -17.1%.
Regarding `Cc1nccn1Cc1cn(-c2ccc(F)c(C(C)(F)F)c2)nn1` [Example 105, 1-[3-(1,1-Difluoro-ethyl)-4-fluoro-phenyl]-4-(2-methyl-imidazol-1-ylmethyl)-1H-[1,2,3]triazole], the concentration for half-maximal inhibition (IC50) on hERG receptor came out at 23.1 µM.
In the case of `Cc1ccc(C(=O)c2nccn2Cc2cn(-c3ccc(Cl)cc3)nn2)cc1` [Example 116, [1-[[1-(4-chlorophenyl)triazol-4-yl]methyl]imidazol-2-yl]-(p-tolyl)methanone], the inhibition at 1 µM on rat NR1/NR2B receptor is -4.9%.
